{
  "source": "patent US20230204594A1",
  "about": "“SYSTEMS AND METHODS FOR REAL-TIME CELLULAR DRUG-TARGET ENGAGEMENT” (NERD BIO LLC, priority 2021, published 2023)",
  "key": {"[1]": {"biological_target": "BCL6 (Homo sapiens, UniProt P41182)", "settings": "known value, read-out: in vitro IC50, cited from earlier work"}, "[2]": {"biological_target": "T1, BCL6 Micro-tagged protein (BCL6-S-tag fusion protein) (Homo sapiens, UniProt P41182)", "T1 construct": "expressed in transfected cells; host or cells: HEK293, lysate (1% Triton X-100 in TBS)", "assay": "Small molecule target engagement screening on lysates, micro-tagged BCL6 heated at Tmin", "type": "binding", "procedure": "HEK293 cells were transfected using Lipofectamine 2000 according to manufacturer protocol. Two days after transfection, media was removed and cells lifted by pipetting up and down using 1×TBS. Cells were centrifuged at 400 g for 4 min. The TBS wash was removed and the cells lysed with either 1% Triton X 100 in TBS for MTH1 and BCL6, or 0.5% DDM in TBS for EGFR expressing cells. Cells were lysed at 4° C. on a rotator for 1 hour and cell debris removed by gentle centrifugation for 1 minute at 6000 rpm. Lysates were transferred to a new tube and aliquots that were not used immediately in the assay were frozen at −80° C. for future use.\nSmall molecule compounds were dissolved in DMSO at 10 mM and serial dilutions in DMSO at 100× concentration were prepared from this stock. Lysates from cells expressing the micro-tagged (S-peptide tagged) protein were diluted with cold 1×TBS at 1/10 and 39.6 ul aliquoted to a PCR plate; […]. The heated sample (30 ul) was added and fluorescence detected using a microplate reader. The plate was read in kinetic mode (excitation=485 nm, emission=520 nm) with the PolarStar Omega 96-well plate reader.\nFor analysis, the RAW fluorescence signal or fluorescence change per minute was plotted with inhibitor dose on a Semi-Log scale using GraphPad Prism. Nonlinear regression analysis was used for curve fitting to identify EC50 of target engagement or apparent KD.\nAfter 4 minutes incubation the fluorescence detected could be plotted with dose of inhibitor tested on a semi-log scale. Using nonlinear regression analysis and fitting a Sigmoidal dose-response curve (with variable slope) using GraphPad Prism identified an EC50 of Target Engagement. […] The peak fluorescence signal identified the dose of inhibitor that saturates the micro-tag protein target. At concentrations of the inhibitor above this saturating dose there was rapid cleavage of the FRET-labeled substrate resulting in loss of fluorescence signal over time (Relative Light Unit per minute (RLU/min)) and lower fluorescence detected. At concentrations below this saturating dose the micro-tag construct was denatured in the heat challenge and there was less micro-tag available for enzyme complementation resulting in lower fluorescence signal (FIG. 36A). […]."}},
  "note": "Read-outs that look alike come from different tables or passages of the source.",
  "data": [
    {"compound": "CNC(=O)COc1cc2cc(Nc3nc(N4CCC(C(=O)N(C)C)CC4)ncc3Cl)cc(OC)c2n(C)c1=O", "note": "[BI-3812]", "values": [
      {"measurement": "IC50", "setting": "[1]; well-characterized inhibitor", "result": "~3", "unit": "nM"},
      {"measurement": "EC50", "setting": "[2]; HEK293 lysates, heated at Tmin, fluorescence after 4 minutes incubation, FIG. 38A, read-out: EC50 of target engagement", "result": 0.63, "unit": "nM"},
      {"measurement": "Kd", "setting": "[2]; Saturation Binding Equation (One-site total), after 15 minutes, FIG. 39C, read-out: Apparent Equilibrium Dissociation Constant (apparent KD)", "result": 1.6, "unit": "nM"},
      {"measurement": "EC50", "setting": "[2]; after 15 minutes, FIG. 39B, read-out: EC50 of target engagement after removal of data points beyond the target saturation dose", "result": 0.9, "unit": "nM"}
    ]},
    {"compound": "C[C@@H]1C[C@H](C)CN(c2ncc(Cl)c(Nc3ccc4c(c3)cc(OC(C)(C)C(=O)O)c(=O)n4C)n2)C1", "note": "[BI-5273]", "values": [
      {"measurement": "IC50", "setting": "[1]; inactive structural analog", "result": "~10000", "unit": "nM"},
      {"measurement": "binding to the BCL6 micro-tag target", "setting": "[2]; HEK293 lysates, heated at Tmin, 4 minutes incubation, FIG. 38B", "result": "did not bind the target"}
    ]}
  ]
}
